In patent US7816408B2, “Calcium receptor active compounds” (NPS Pharmaceuticals, Inc., priority 2002, dated 2010):

What follows are compounds tested against T1, human calcium receptor (Homo sapiens, UniProt P41180) (assay: Activity on calcium receptors: fluo-3 fluorescence in HEK293 cells transfected with human calcium receptor gene). Conditions: HEK293 cells transfected with plasmid pHuPCaR4.0 (human calcium receptor gene), loaded with fluo-3; 1 mM CaCl2, 1 mM MgCl2.
T1 construct: expressed in transfected cells; host or cells: HEK293
T1 sequence (P41180 20-1078): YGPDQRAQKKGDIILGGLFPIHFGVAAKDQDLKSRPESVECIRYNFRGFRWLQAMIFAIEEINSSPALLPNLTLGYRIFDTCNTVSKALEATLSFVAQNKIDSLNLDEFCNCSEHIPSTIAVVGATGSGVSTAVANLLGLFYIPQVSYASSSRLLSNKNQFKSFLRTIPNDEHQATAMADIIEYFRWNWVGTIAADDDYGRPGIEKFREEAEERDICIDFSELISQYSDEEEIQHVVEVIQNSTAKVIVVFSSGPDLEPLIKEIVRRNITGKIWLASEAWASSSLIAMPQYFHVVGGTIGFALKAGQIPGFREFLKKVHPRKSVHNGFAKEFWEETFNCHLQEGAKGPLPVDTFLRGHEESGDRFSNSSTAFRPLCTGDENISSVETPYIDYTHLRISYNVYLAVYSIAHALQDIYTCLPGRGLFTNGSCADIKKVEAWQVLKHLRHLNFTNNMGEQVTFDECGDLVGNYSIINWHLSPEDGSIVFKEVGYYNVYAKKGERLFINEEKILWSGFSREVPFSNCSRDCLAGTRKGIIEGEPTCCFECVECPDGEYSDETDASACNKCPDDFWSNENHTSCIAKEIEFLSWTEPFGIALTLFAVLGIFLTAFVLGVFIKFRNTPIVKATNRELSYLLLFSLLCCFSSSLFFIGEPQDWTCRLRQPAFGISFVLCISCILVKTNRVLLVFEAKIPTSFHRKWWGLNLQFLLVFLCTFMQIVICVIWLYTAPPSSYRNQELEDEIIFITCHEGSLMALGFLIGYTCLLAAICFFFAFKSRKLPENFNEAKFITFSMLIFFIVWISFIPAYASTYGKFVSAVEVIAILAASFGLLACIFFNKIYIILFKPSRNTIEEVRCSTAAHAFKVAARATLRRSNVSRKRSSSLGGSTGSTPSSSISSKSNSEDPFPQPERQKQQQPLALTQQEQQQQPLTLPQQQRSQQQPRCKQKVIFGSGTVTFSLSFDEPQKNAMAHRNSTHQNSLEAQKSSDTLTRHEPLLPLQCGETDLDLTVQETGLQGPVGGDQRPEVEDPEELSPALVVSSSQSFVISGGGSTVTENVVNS
Assay type: cell-based
Protocol: The activities of the compounds of the present invention on calcium receptors were measured. The measurement was performed in accordance with the method described in Example 4 of Nemeth et al., PCT/US95/13704 (International Publication No. WO96/12697). In brief, HEK293 cells were transfected with a plasmid pHuPCaR4.0 containing a human calcium receptor gene and loaded with fluo-3. The loading was carried out by incubating the cells at 37° C. for 1 hour in Dulbecco's modified Eagle's medium which contained about 5 μM of fluo-3/AM and had been buffered with 20 mM HEPES. Next, the cells were rinsed with Hank's balanced salt solution which contained 1 mM CaCl2 and 1 mM MgCl2 and had been buffered with 20 mM HEPES. Then each test compound was added to the cells and the fluorescence was measured with the use of an excitation wavelength of 485 nm and an emission wavelength of 540 nm.

| Structure (SMILES) | EC50 |
| --- | --- |
| Cc1ccc(C)c(SCCCCCCCCCCCCNC(C)c2cccc3ccccc23)c1 (centres unmarked) [Compound S-16] | 110 nM |
| C[C@@H](NCCC(=O)N(Cc1ccccc1)Cc1cccc(Cl)c1)c1cccc2ccccc12 [Compound K-2252] | 18 nM |
| COc1cccc(C(C)NCCCSc2cccc(Cl)c2)c1 (centres unmarked) [Compound K-2061] | 150 nM |
| COc1cccc(C(C)NCCCCCOc2ccc(Cl)cc2)c1 (centres unmarked) [Compound 16] | 550 nM |
| COc1cccc(C(C)NCCCSc2ccccc2Br)c1 (centres unmarked) [Compound K-2016] | 360 nM |
| CC(NCCC(=O)N(Cc1ccc(Cl)cc1)Cc1cccc(Cl)c1)c1cccc2ccccc12 (centres unmarked) [Compound K-2261] | 26 nM |
| CC(NCCSc1cc(Cl)ccc1Cl)c1cccc(OCCCCCCCl)c1 (racemic) [Compound K-2260, (±)-N-(1-(3-(6-chlorohexyloxy)phenyl)ethyl)-2-(2′,5′-dichlorophenylthio)ethylamine] | 96 nM |
| COc1cccc(C(C)NCCCCCCSc2cccc(C(F)(F)F)c2)c1 (centres unmarked) [Compound K-2012] | 870 nM |
| COc1cccc([C@@H](C)NCCCCCCSc2nc3ccccc3s2)c1 [Compound 40] | 5100 nM |
| COc1cccc(C(C)NCCCCCSc2ccccc2Br)c1 (centres unmarked) [Compound K-2018] | 330 nM |
| COc1cccc(C(C)NCCCCCSc2ccc(Cl)c(Cl)c2)c1 (centres unmarked) [Compound K-2080] | 770 nM |
| COc1cccc(C(C)NCCCCCCCSc2ccc(C(F)(F)F)cc2)c1 (centres unmarked) [Compound K-2059] | 270 nM |
| COc1cccc(C(C)NCCCOc2ccc(Cl)cc2)c1 (centres unmarked) [Compound 68] | 650 nM |
| COc1cccc(C(C)NCCCCSc2ccc(C(F)(F)F)cc2)c1 (centres unmarked) [Compound K-2056] | 39 nM |
| CC(NCCCOc1ccc2[nH]ccc2c1)c1cccc2ccccc12 (centres unmarked) [Compound 112] | 78 nM |
| C[C@@H](NCCCCCCCSc1c(F)c(F)cc(F)c1F)c1cccc2ccccc12 [Compound S-165] | 150 nM |
| COc1cccc(C(C)NCCCCSc2ccc([N+](=O)[O-])cc2)c1 (centres unmarked) [Compound K-2033] | 350 nM |
| COc1cccc(C(C)NCCCCSc2c(Cl)cccc2Cl)c1 (centres unmarked) [Compound K-2085] | 130 nM |
| COc1cccc(C(C)NCCSc2cccc(C(F)(F)F)c2)c1 (centres unmarked) [Compound K-2008] | 860 nM |
| COc1cccc(C(C)NCCCSc2c(Cl)cccc2Cl)c1 (centres unmarked) [Compound K-2084] | 120 nM |
| COc1cccc(C(C)NCCCCSc2nc3ccccc3s2)c1 (centres unmarked) [Compound 36] | 210 nM |

| Structure (SMILES) | EC50 |
| --- | --- |
| COc1cccc(C(C)NCCCCCCOc2ccccc2Cl)c1 (centres unmarked) [Compound 6] | 7600 nM |
| CC(NCCC(=O)N(Cc1cccc(Cl)c1)Cc1cccc(Cl)c1)c1cccc2ccccc12 (centres unmarked) [Compound K-2253] | 190 nM |
| C[C@@H](NCCC(=O)N(Cc1ccc(Cl)cc1)Cc1ccc(Cl)cc1)c1cccc2ccccc12 [Compound K-2243, N1,N1-di(4-chlorobenzyl)-3-{[(1R)-1-(1-naphthyl)ethyl]amino}propanamide] | 92 nM |
| COc1cccc(C(C)NCCCCCCCSc2cccc(Br)c2)c1 (centres unmarked) [Compound K-2050] | 550 nM |
| Cc1ccc(COc2cccc(C(C)NCCSc3cc(Cl)ccc3Cl)c2)cc1 (racemic) [Compound K-2268, (±)-N-(1-(3-(4-methylbenzyloxy)phenyl)ethyl)-2-(2′,5′-dichlorophenylthio)ethylamine] | 89 nM |
| COc1cccc(C(C)NCCCSc2ccc(Cl)c(Cl)c2)c1 (centres unmarked) [Compound K-2078] | 170 nM |
| COc1cccc([C@@H](C)NCCCCCSc2ccc(C(F)(F)F)cc2)c1 [Compound K-2057] | 410 nM |
| COc1cccc(C(C)NCCSc2ccccc2Br)c1 (centres unmarked) [Compound K-2015] | 490 nM |
| COc1cccc(C(C)NCCCCSc2ccc(F)cc2)c1 (centres unmarked) [Compound K-2040] | 80 nM |
| CC(NCCOc1cccc(Cl)c1)c1cccc2ccccc12 (centres unmarked) [Compound K-2030] | 49 nM |
| COc1cccc(C(C)NCCCCOc2ccccc2Cl)c1 (centres unmarked) [Compound 2] | 13000 nM |
| CC(NCCCCCCCSc1c(Cl)c(Cl)nc(Cl)c1Cl)c1cccc2ccccc12 (centres unmarked) [Compound S-193] | 66 nM |
| COc1cccc(C(C)NCCCCCSc2ccc([N+](=O)[O-])cc2)c1 (centres unmarked) [Compound K-2034] | 61 nM |
| COc1ccc(CN(Cc2ccc(O)cc2)C(=O)CCNC(C)c2cccc3ccccc23)cc1 (centres unmarked) [Compound K-2312] | 80 nM |
| COc1cccc(C(C)NCCCCCSc2ccc(F)cc2)c1 (centres unmarked) [Compound K-2041] | 100 nM |
| CC(NCCSc1cc(Cl)c(Cl)cc1Cl)c1cccc2ccccc12 (centres unmarked) [Compound K-2295] | 1360 nM |
| CC(NCCCNC(C)c1cccc2ccccc12)c1cccc2ccccc12 (centres unmarked) [Compound 93] | 110 nM |
| C[C@@H](NCCCCSc1ccc(C(F)(F)F)cc1)c1cccc2ccccc12 [Compound K-2246, N-[(1R)-1-(1-naphthyl)ethyl]-N-(4-{[4-(trifluoromethyl)phenyl]thio}butyl)amine] | 120 nM |
| COc1cccc(C(C)NCCCOc2ccc3[nH]ccc3c2)c1 (centres unmarked) [Compound 80] | 464 nM |
| C[C@@H](NCCC(=O)N(Cc1ccc(OC(F)(F)F)cc1)Cc1ccc(OC(F)(F)F)cc1)c1cccc2ccccc12 [Compound K-2257, N1,N1-di[4-(trifluoromethoxy)benzyl]-3-{[(1R)-1-(1-naphthyl)ethyl]amino}propanamide] | 39 nM |
| CC(NCCC(=O)N(Cc1ccccc1)Cc1ccccc1)c1cccc2ccccc12 (centres unmarked) [Compound K-2177] | 75 nM |

| Structure (SMILES) | EC50 |
| --- | --- |
| COc1cccc(C(C)NCCCCCCCCSc2cccc(Br)c2)c1 (centres unmarked) [Compound K-2051] | 340 nM |
| C[C@@H](NCCCCCCCCCCCCSc1c(F)c(F)c(C(F)(F)F)c(F)c1F)c1cccc2ccccc12 [Compound S-201] | 180 nM |
| Cc1cc(C)cc(SCCCCCCCN[C@H](C)c2cccc3ccccc23)c1 [Compound S-69] | 310 nM |
| C[C@@H](NCCCCCSc1ccc(C(F)(F)F)cc1)c1cccc2ccccc12 [Compound K-2076, N-[(1R)-1-(1-naphthyl)ethyl]-N-(5-{[4-(trifluoromethyl)phenyl]thio}pentyl)amine] | 6200 nM |
| CC(NCCC(=O)N(Cc1ccccc1)Cc1ccccc1Cl)c1cccc2ccccc12 (centres unmarked) [Compound K-2249] | 82 nM |
| COc1cccc(C(C)NCCCSc2ccc(C(F)(F)F)cc2)c1 (centres unmarked) [Compound K-2055] | 57 nM |
| Cc1cc(C)cc(SCCNC(C)c2cccc3ccccc23)c1 (centres unmarked) [Compound S-64] | 98 nM |
| CC(NCCCCCSc1ccccc1Br)c1cccc2ccccc12 (centres unmarked) [Compound K-2075] | 140 nM |
| COc1cccc(C(C)NCCCCSc2ccccc2Br)c1 (centres unmarked) [Compound K-2017] | 360 nM |
| COc1cccc(C(C)NCCCOC2c3ccccc3-c3ccccc32)c1 (centres unmarked) [Compound 56] | 280 nM |
| COc1cccc([C@@H](C)NCCCCOc2ccc(Cl)cc2)c1 [Compound 14] | 2900 nM |
| CC(NCCC(=O)N(Cc1ccc(F)cc1)Cc1ccc(F)cc1)c1cccc2ccccc12 (centres unmarked) [Compound K-2256] | 180 nM |
| COc1cccc(C(C)NCCCCCCSc2cccc(Br)c2)c1 (centres unmarked) [Compound K-2049] | 830 nM |
| COc1cccc(C(C)NCCCCSc2cccc(C(F)(F)F)c2)c1 (centres unmarked) [Compound K-2010] | 140 nM |
| COc1cccc(C(C)NCCCCSc2cccc(Br)c2)c1 (centres unmarked) [Compound K-2047] | 130 nM |
| CC(NCCCCSc1ccc(Br)cc1)c1cccc2ccccc12 (centres unmarked) [Compound S-80] | 100 nM |
| C[C@@H](NCCC(=O)N(Cc1ccc(C(F)(F)F)cc1)Cc1ccc(C(F)(F)F)cc1)c1cccc2ccccc12 [Compound K-2259, N1,N1-di[4-(trifluoromethyl)benzyl]-3-{[(1R)-1-(1-naphthyl)ethyl]amino}propanamide] | 2.4 nM |
| COc1cccc(C(C)NCCCCCCSc2ccccc2Cl)c1 (centres unmarked) [Compound 26] | 1800 nM |
| CC(NCCC(=O)N(Cc1ccccc1)Cc1ccc(Cl)cc1Cl)c1cccc2ccccc12 (centres unmarked) [Compound K-2251] | 51 nM |
| COc1cccc(C(C)NCCCOc2ccc3ccccc3c2)c1 (centres unmarked) [Compound 74] | 7200 nM |
